Laboratory results published in patent US20130217664A1, “NOVEL COMPOUNDS USEFUL FOR THE TREATMENT OF DEGENERATIVE AND INFLAMMATORY DISEASES” (priority 2012, published 2013).

Assays:
Type in all cases: biochemical
human JAK1 = biological target: T1, human JAK1 (Homo sapiens, UniProt P23458); assay: JAK1 inhibition assay (polyGT substrate / Ulight-JAK1 peptide); conditions: recombinant human JAK1 catalytic domain; polyGT or Ulight-JAK1 peptide assay
T1 construct: catalytic domain, amino acids 866-1154; catalog number PV4774; purchased Invitrogen PV4774
T1 sequence (P23458 866-1154): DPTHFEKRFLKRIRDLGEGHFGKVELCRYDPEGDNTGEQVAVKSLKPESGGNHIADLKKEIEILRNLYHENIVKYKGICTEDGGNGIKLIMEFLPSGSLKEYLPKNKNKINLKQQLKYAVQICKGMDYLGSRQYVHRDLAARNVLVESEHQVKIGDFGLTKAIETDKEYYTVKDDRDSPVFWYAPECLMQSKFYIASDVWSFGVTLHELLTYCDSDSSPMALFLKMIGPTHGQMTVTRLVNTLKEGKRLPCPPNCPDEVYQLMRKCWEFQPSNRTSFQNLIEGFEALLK
Method in brief: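 Signal scaled between vehicle and 10 μM staurosporine. Radiometric polyGT reactions ran 45 min at 30 °C, counted after phosphoric-acid stop. Ulight peptide reactions ran 60 min at room temperature, fluorescence read after adding Eu-PT66 detection mix with EDTA.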

human TYK2 = biological target: T2, human TYK2 (Homo sapiens, UniProt P29597); assay: TYK2 inhibition assay; conditions: recombinant human TYK2 catalytic domain, polyGT substrate
T2 construct: catalytic domain (amino acids 871-1187; catalog number 08-147); purchased Carna Biosciences 08-147
T2 sequence (P29597 871-1187): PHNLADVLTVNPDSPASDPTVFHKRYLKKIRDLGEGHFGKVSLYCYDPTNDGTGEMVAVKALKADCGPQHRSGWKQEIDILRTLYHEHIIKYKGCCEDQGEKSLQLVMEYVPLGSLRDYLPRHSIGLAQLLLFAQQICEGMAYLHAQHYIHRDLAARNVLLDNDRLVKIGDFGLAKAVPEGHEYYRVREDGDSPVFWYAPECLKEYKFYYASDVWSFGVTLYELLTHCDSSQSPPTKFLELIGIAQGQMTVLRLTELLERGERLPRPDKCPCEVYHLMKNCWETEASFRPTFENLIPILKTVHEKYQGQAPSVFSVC
Experimental: 1.4 TYK2 Inhibition Assay
After 90 min at 30° C., reactions were stopped by adding 25 μL/well of 150 mM phosphoric acid. […] Plates were washed 6 times with 300 μL per well of a 75 mM phosphoric acid solution and the bottom of the plates was sealed. 40 μL/well of Microscint-20 was added, the top of the plates was sealed and readout was performed using the Topcount (Perkin Elmer). Kinase activity was calculated by subtracting counts per min (cpm) obtained in the presence of a positive control inhibitor (10 μM staurosporine) from cpm obtained in the presence of vehicle. The ability of a test compound to inhibit this activity was determined as:
(§1) Percentage inhibition=((cpm determined for sample with test compound present−cpm determined for sample with positive control inhibitor)divided by(cpm determined in the presence of vehicle−cpm determined for sample with positive control inhibitor))*100.
Dose dilution series were prepared for the compounds enabling the testing of dose-response effects in the TYK2 assay and the calculation of the IC50 for each compound.

human JAK3 = biological target: T3, human JAK3 (Homo sapiens, UniProt P52333); assay: JAK3 inhibition assay; conditions: recombinant human JAK3 catalytic domain; polyGT substrate
T3 construct: catalytic domain (amino acids 781-1124; catalog number PV3855); purchased Invitrogen PV3855
T3 sequence (P52333 781-1124): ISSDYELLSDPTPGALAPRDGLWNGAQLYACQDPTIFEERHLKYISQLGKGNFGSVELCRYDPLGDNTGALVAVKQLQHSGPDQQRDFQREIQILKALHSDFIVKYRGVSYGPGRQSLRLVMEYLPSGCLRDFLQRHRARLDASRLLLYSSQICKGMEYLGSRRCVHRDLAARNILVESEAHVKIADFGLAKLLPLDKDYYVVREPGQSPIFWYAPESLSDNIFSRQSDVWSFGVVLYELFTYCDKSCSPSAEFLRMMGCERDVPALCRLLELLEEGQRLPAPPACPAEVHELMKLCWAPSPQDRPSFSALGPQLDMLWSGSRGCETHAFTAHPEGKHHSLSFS
Experimental: 1.3 JAK3 Inhibition Assay
0.5 ng JAK3 protein was incubated with 2.5 μg polyGT substrate (Sigma catalog number P0275) in kinase reaction buffer (25 mM Tris pH 7.5, 0.5 mM EGTA, 10 mM MgCl2, 2.5 mM DTT, 0.5 mM Na3VO4, 5 mM b-glycerolphosphate, 0.01% Triton X-100, 1 μM non-radioactive ATP, 0.25 μCi 33P-gamma-ATP (GE Healthcare, catalog number AH9968) final concentrations) with or without 5 μL containing test compound or vehicle (DMSO, 1% final concentration), in a total volume of 25 μL, in a polypropylene 96-well plate (Greiner, V-bottom). After 45 min at 30° C., reactions were stopped by adding 25 μL/well of 150 mM phosphoric acid. […] Plates were washed 6 times with 300 μL per well of a 75 mM phosphoric acid solution and the bottom of the plates was sealed. 40 μL/well of Microscint-20 was added, the top of the plates was sealed and readout was performed using the Topcount (Perkin Elmer). Kinase activity was calculated by subtracting counts per min (cpm) obtained in the presence of a positive control inhibitor (10 μM staurosporine) from cpm obtained in the presence of vehicle. The ability of a test compound to inhibit this activity was determined as:
as §1
(§2) Dose dilution series were prepared for the compounds enabling the testing of dose-response effects in the JAK3 assay and the calculation of the IC50 for each compound. Each compound was routinely tested at concentration of 20 μM followed by a 1/5 serial dilution, 10 points in a final concentration of 1% DMSO.

human JAK2 = biological target: T4, human JAK2 (Homo sapiens, UniProt O60674); assay: JAK2 inhibition assay (polyGT substrate / Ulight-JAK1 peptide); conditions: recombinant human JAK2 catalytic domain; polyGT or Ulight-JAK1 peptide assay
T4 construct: catalytic domain (amino acids 808-1132; catalog number PV4210); GST; purchased Invitrogen PV4210
T4 sequence (O60674 808-1132): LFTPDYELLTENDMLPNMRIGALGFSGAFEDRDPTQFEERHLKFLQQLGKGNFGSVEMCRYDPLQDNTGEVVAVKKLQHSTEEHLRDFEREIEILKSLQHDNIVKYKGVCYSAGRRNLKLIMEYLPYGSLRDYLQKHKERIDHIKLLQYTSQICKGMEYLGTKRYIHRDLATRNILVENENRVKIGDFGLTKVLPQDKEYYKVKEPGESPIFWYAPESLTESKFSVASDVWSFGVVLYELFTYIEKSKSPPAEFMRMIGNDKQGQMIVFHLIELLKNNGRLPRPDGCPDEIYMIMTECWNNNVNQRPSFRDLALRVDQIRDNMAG
Experimental: 1.2 JAK2 Inhibition Assay
1.2.1 JAK2 Assay polyGT Substrate
0.025 mU of JAK2 is incubated with 2.5 μg polyGT substrate (Sigma catalog number P0275) in kinase reaction buffer (5 mM MOPS pH 7.5, 9 mM MgAc, 0.3 mM EDTA, 0.06% Brij and 0.6 mM DTT, 1 μM non-radioactive ATP, 0.25 μCi ^33P-gamma-ATP (GE Healthcare, catalog number AH9968) final concentrations) with or without 5 μL containing test compound or vehicle (DMSO, 1% final concentration), in a total volume of 25 μL, in a polypropylene 96-well plate (Greiner, V-bottom). After 90 min at 30° C., reactions are stopped by adding of 25 μL/well of 150 mM phosphoric acid. […] Plates are washed 6 times with 300 μL per well of a 75 mM phosphoric acid solution and the bottom of the plates is sealed. 40 μL/well of Microscint-20 is added, the top of the plates is sealed and readout is performed using the Topcount (Perkin Elmer). Kinase activity is calculated by subtracting counts per min (cpm) obtained in the presence of a positive control inhibitor (10 μM staurosporine) from cpm obtained in the presence of vehicle. The ability of a test compound to inhibit this activity is determined as:
as §1
Dose dilution series are prepared for the compounds enabling the testing of dose-response effects in the JAK2 assay and the calculation of the IC50 for each compound.
1.2.2 JAK2 Ulight-JAK1 Peptide Assay
After 60 min at room temperature, reactions were stopped by adding 20 μL/well of detection mixture (1× detection buffer (Perkin Elmer, catalog number CR97-100C), 0.5 nM Europium-anti-phosphotyrosine (PT66) (Perkin Elmer, catalog number AD0068), 10 mM EDTA). […] Kinase activity was calculated by subtracting relative fluorescence units (RFU) obtained in the presence of a positive control inhibitor (10 μM staurosporine) from RFU obtained in the presence of vehicle. The ability of a test compound to inhibit this activity was determined as:
Percentage inhibition=((RFU determined for sample with test compound present−RFU determined for sample with positive control inhibitor)divided by(RFU determined in the presence of vehicle−RFU determined for sample with positive control inhibitor))*100.
as §2, with “are” for “were”, “compound” for “the compounds”, “JAK2” for “JAK3”, “the” for “each”, “is” for “was”, “DMSO. […] The data are expressed as the average IC50 from the assays±standard error of the mean.” for “DMSO.”

Structure (SMILES) | IC50 (human JAK1) [nM] | IC50 (human TYK2) [nM] | IC50 (human JAK3) [nM] | IC50 (human JAK2) [nM]
CCc1cc(CNC2CCS(=O)(=O)C2)ccc1N(C)c1cc2c(cn1)ncn2C (stereo not shown) [Compound 300, {4-[(1,1-Dioxo-tetrahydro-thiophen-3-ylamino)-methyl]-2-ethyl-phenyl}-methyl-(1-methyl-1H-imidazo[4,5-c]pyridin-6-yl)-amine] | 0.01 to 100 | 501 to 1000 | > 1000 | 101 to 500
CCc1cc(CN(C)S(C)(=O)=O)ncc1N(C)c1cc2c(cn1)ncn2C [Compound 317, N-{4-Ethyl-5-[methyl-(1-methyl-1H-imidazo[4,5-c]pyridin-6-yl)-amino]-pyridin-2-ylmethyl}-N-methyl-methane sulfonamide] | 0.01 to 100 | 0.01 to 100 | 0.01 to 100 | 101 to 500
CCn1nc(C)cc1N(C)c1cc2c(cn1)ncn2C [Compound 305, (2-Ethyl-5-methyl-2H-pyrazol-3-yl)-methyl-(1-methyl-1H-imidazo[4,5-c]pyridin-6-yl)-amine] | > 1000 | > 1000 | > 1000 | > 1000
Cc1c(OCC(C)C)cccc1N(C)c1cc2c(cn1)ncn2C [Compound 70, N-(3-isobutoxy-2-methylphenyl)-N,1-dimethyl-1H-imidazo[4,5-c]pyridin-6-amine] | 101 to 500 |  |  | 501 to 1000
COc1ccc(COc2cccc(N(C)c3cc4c(cn3)ncn4C)c2C)cc1 [Compound 44, N-(3-(4-methoxybenzyloxy)-2-methylphenyl)-N,1-dimethyl-1H-imidazo[4,5-c]pyridin-6-amine] | 501 to 1000 |  |  | > 1000
Cc1c(OCC(=O)N(C)C)cccc1N(C)c1cc2c(cn1)ncn2C [Compound 65, N,N-dimethyl-2-(2-methyl-3-(methyl(1-methyl-1H-imidazo[4,5-c]pyridin-6-yl)amino)phenoxy)acetamide] | > 1000 |  |  | > 1000
Cc1cc(OCC(=O)N(C)C)ccc1N(C)c1cc2c(cn1)ncn2C [Compound 51, N,N-dimethyl-2-(3-methyl-4-(methyl(1-methyl-1H-imidazo[4,5-c]pyridin-6-yl)amino)phenoxy)acetamide] | > 1000 |  |  | > 1000
CCc1ccccc1N(c1cc2c(cn1)ncn2C)C1CC1 [Compound 37, N-Cyclopropyl-N-(2-ethylphenyl)-1-methyl-1H-imidazo[4,5-c]pyridin-6-amine] | 101 to 500 |  |  | > 1000
CC(C)CCOc1ccc(N(C)c2cc3c(cn2)ncn3C)cc1 [Compound 21, N-(4-(isopentyloxy)phenyl)-N,1-dimethyl-1H-imidazo[4,5-c]pyridin-6-amine] | 501 to 1000 |  |  | > 1000

Further lines, results first:

IC50 (human JAK1) [nM] | IC50 (human TYK2) [nM] | IC50 (human JAK3) [nM] | IC50 (human JAK2) [nM] | Structure (SMILES)
0.01 to 100 | > 1000 | > 1000 | > 1000 | CCC(=O)N1CC(c2cc(CC)c(N(C)c3cc4c(cn3)ncn4C)cn2)C1 [Compound 336, 1-(3-{4-Ethyl-5-[methyl-(1-methyl-1H-imidazo[4,5-c]pyridin-6-yl)-amino]-pyridin-2-yl}-azetidin-1-yl)-propan-1-one]
0.01 to 100 | 0.01 to 100 | 101 to 500 | 0.01 to 100 | CCc1cc(N2CC(NS(C)(=O)=O)C2)ncc1N(C)c1cc2c(cn1)ncn2C [Compound 443, N-(1-{4-Ethyl-5-[methyl-(1-methyl-1H-imidazo[4,5-c]pyridin-6-yl)-amino]-pyridin-2-yl}-azetidin-3-yl)-methAnesulfonamide]
 | > 1000 | > 1000 | > 1000 | CCc1ccccc1N(CCC#N)c1cc2c(cn1)ncn2C [Compound 464, 3-((2-ethylphenyl)(1-methyl-1H-imidazo[4,5-c]pyridin-6-yl)amino)propanenitrile]
501 to 1000 | > 1000 | > 1000 | 501 to 1000 | CCNC(=O)C1CN(c2cc(CC)c(N(C)c3cc4c(cn3)ncn4C)cn2)C1 [Compound 412, 1-{4-Ethyl-5-[methyl-(1-methyl-1H-imidazo[4,5-c]pyridin-6-yl)-amino]-pyridin-2-yl}-azetidine-3-carboxylic acid ethylamide]
0.01 to 100 | > 1000 | > 1000 | 101 to 500 | CCc1cc(N2CC(C(=O)OC)C2)ncc1N(C)c1cc2c(cn1)ncn2C [Compound 399, 1-{4-Ethyl-5-[methyl-(1-methyl-1H-imidazo[4,5-c]pyridin-6-yl)-amino]-pyridin-2-yl}-azetidine-3-carboxylic acid methyl ester]
0.01 to 100 | 0.01 to 100 | 101 to 500 | 0.01 to 100 | CCc1cc(C(C#N)N2CCOCC2)ncc1N(C)c1cc2c(cn1)ncn2C (stereo not shown) [Compound 444, {4-Ethyl-5-[methyl-(1-methyl-1H-imidazo[4,5-c]pyridin-6-yl)-amino]-pyridin-2-yl}-morpholin-4-yl-acetonitrile]
> 1000 | > 1000 | > 1000 | > 1000 | CCc1cc(C#N)c(C(F)(F)F)cc1N(C)c1cc2c(cn1)ncn2C [Compound 321, 5-Ethyl-4-[methyl-(1-methyl-1H-imidazo[4,5-c]pyridin-6-yl)-amino]-2-trifluoromethyl-benzonitrile]
> 1000 | > 1000 | > 1000 | > 1000 | CCc1nc(C2CN(C(=O)OC(C)(C)C)C2)cnc1N(C)c1cc2c(cn1)ncn2C [Compound 457, 3-{6-Ethyl-5-[methyl-(1-methyl-1H-imidazo[4,5-c]pyridin-6-yl)-amino]-pyrazin-2-yl}-azetidine-1-carboxylic acid tert-butyl ester]
